Measurements as given in US7807396B2, “Insulin degrading enzyme assays for treatment of alzheimer's disease” (University of Kentucky Research Foundation, priority 2000, dated 2010).

Columns and labels:
[1] = tested on: neprilysin mRNA; test: In situ hybridization of neprilysin mRNA in hippocampus of ovariectomized rats; type: in vivo, rat; details: 17β-estradiol pellets, 3 weeks
Description: Using in situ hybridization we administered antisense probes for each of exons 1, 2, 3, and 4 (R1, R2, R3 and R4, respectively) to the brains of ovariectomized rats, some of which also received estrogen replacement therapy. Adult female Sprague-Dawley rats (approximate weight 300 grams) were used to study the effects of ovariectomy and estradiol supplementation on neprilysin expression levels and activity. In situ hybridization was used to measure neprilysin mRNA levels while a coupled chromogenic assay [Li, C. and Hersh, L. B. Neprilysin: Assay Methods, Purification and Characterization. Methods in Enzymology. 248, 253-263 (1995)] was used to measure neprilysin activity. […]
Images on autoradiographic film were analyzed with computer-aided densitometry (MCID-M1, Imaging Research, St. Catharines, Ontario, Canada). Optical density values of the [^14C] microscales were obtained and a correlating log-log linear least-squares fit was calculated (r^2>0.99). […] The optical density of each defined region was determined for the neuronal somal layer of area CA1 (stratum pyramidale), CA3 and dentate gyrus (stratum granulosum). Identification of brain regions was determined using the atlas of Paxinos and Watson (G. Paxinos, C. Watson, The rat Brain in Stereotaxic Coordinates, second Edition, Academic Press, Australia, 1986).

[2] = tested on: neprilysin; test: Neprilysin enzyme activity in rat brain tissue lysates, two-step assay; type: in vivo; details: 17β-estradiol pellets, 3 weeks
Method: Adult female Sprague-Dawley rats (approximate weight 300 grams) were used to study the effects of ovariectomy and estradiol supplementation on neprilysin expression levels and activity. […] Ovariectomy was performed at 13 weeks of age and sham-surgery was performed on littermate animals to provide a control group. For estrogen replacement groups, ovariectomized animals were implanted with 17β-estradiol pellets (Innovative Research of America, Sarasota, Fla., USA). Rats were killed 3 weeks later after implantation. The brains were rapidly removed, quickly frozen over dry ice, and stored at −80° C. until father processing. […] The brains were used either for in situ hybridization or for neprilysin activity measurements as noted above.
In this assay glutaryl-Ala-Phe-4-methoxy-2-naphthylamide is cleaved to glutaryl-Ala-Ala and Phe-4-methoxy-2-naphthylamide. An aminopetidase is then used to cleave the Phe-4-methoxy-2-naphthylamide releasing fluorescent 4-methoxy-2-naphthylamine which is quantified on a spectrofluorometer.
The tissue lysates were evaluated for neprilysin enzymatic activity using a two-step chromogenic assay. […] The 4-methoxy-2-naphthylamine was quantified spectrofluorimetrically at an excitation wavelength of 340 nm and an emission wavelength of 425 nm. […]

[3] = tested on: primary rat cortical neurons; test: Neuroprotection / neurotoxicity assay in primary rat cortical neurons; type: cell-based
Method: Neurotoxicity assays were performed as described by Estus et. al. (Estus et al. (1997) J Neurosci 17:7736-7745) using embryonic day 18 rat fetuses to establish primary rat cortical neuron cultures. Rat brain cortical cells were initially cultured in AM0 media for 3-5 hrs in 16 well chamber slides (Nalge Nunc International, Rochester, N.Y.) pre-coated with polyethyleneimine at a density of ˜1×10^5 cells per well. The culture was enriched in neurons by replacement of the AM0 media with Dulbecco's modified Eagle's medium (DMEM, Life Technologies, Rockville, Md.) containing 100 units/ml penicillin, 100 μg/ml streptomycin and 2% B27 serum supplement (Life Technologies, Rockville, Md.).
Cells were treated with Aβ peptides and then fixed with 4% paraformaldehyde for 15 min. at room temperature. After washing the cells with PBS they were then stained with Hoechst 33258 at 1 μg/ml for 10 minutes. Neurons were then visualized by fluorescence microscopy. Those cells with uniformly dispersed chromatin were scored as survivors, while those cells containing condensed chromatin were scored as non-survivors. Readings were typically taken in triplicate with a minimum of 250 neurons scored from each well. Cells treated as described above were visualized using a Nikon microscope equipped with a Hoffman modulation contrast lens. Statistical analysis was performed on the samples using ANOVA.
To test this, rat cortical neurons were treated with Aβ peptides in the presence and absence of insulysin. Preliminary experiments were performed to obtain a suitable Aβ peptide concentration that would show a significant cytotoxic effect, as there are batch to batch variations in the ability of the Aβ peptides to mediate cytotoxic effects on cells in culture.
The cell based assay using primary rat cortical neurons was used to determine whether the insulysin cleavage products of the Aβ peptides were themselves neurotoxic. Recombinant insulysin at concentrations ranging from 0.5 to 5000 ng was added simultaneously with the Aβ peptides to the cortical cultures.

[4] = target: T1, insulysin (Rattus norvegicus, UniProt P35559); test: Insulysin activity with fluorogenic peptide Abz-[…]-EDDnp; type: biochemical; details: increasing concentrations of the peptide
T1 construct: His6 (N); made in house; host or cells: Sf9 cells, baculovirus (pFASTBAC)
Method: Referring to FIG. 16, the effect of increasing the concentration of the peptide dynorphin B-9 on insulysin activity is shown. Insulysin activity was measured with the fluorogenic peptide Abz-[…]-EDDnp (SEQ ID No: 14) in the presence of increasing concentrations of the peptide. This peptide contains the fluorescent […] (Abz) which is internally quenched by the 2,4-dinitrophenyl moiety.
Referring to FIG. 17, the effect of increasing the concentration of several different peptides on insulysin activity is summarized. Insulysin activity was measured with the fluorogenic peptide Abz-[…]-EDDnp (SEQ ID NO: 14) in the presence of increasing concentrations of the peptide.

[5] = tested on: rat brain hippocampal neurons; test: Hippocampal cell survival with Aβ1-42 with or without insulysin; type: cell-based
Description: In order to determine whether the insulysin cleavage of Aβ peptides produces products which in themselves are neurotoxic, we conducted experiments using cultured primary hippocampal cells. […] An inactivated form of insulysin was used as a control.
Viable cells were detected by microscopy.
Neuronal survival was estimated as a function of time.

[6] = target: T2, β-endorphin (Homo sapiens, UniProt P01189); test: Insulysin activity determination, disappearance of β-endorphin by HPLC; type: biochemical; details: 30 μM β-endorphin, 37° C.
T2 construct: Human β-endorphin1-31; purchased National Institute on Drug Abuse drug supply system
T2 sequence (P01189 237-267): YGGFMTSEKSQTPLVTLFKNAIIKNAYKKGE
Method: Materials. […] Solutions were prepared by dissolving the peptide in dimethylsulfoxide (DMSO) to give a stock concentration of 200 μM. The peptide stock was lyophilized and stored at −80° C. until use. The aggregation state of Aβ peptide stock solutions was checked by electron microscopy (Ray et al. (2000) Brain Res 853:344-351) and found to be predominantly, if not exclusively, monomeric. For the in vitro reactions with insulysin, a final concentration of 25 μM Aβ1-40 was obtained after bringing the lyophilized peptide into solution with double distilled water. […] Human β-endorphin1-31, obtained from the National Institute on Drug Abuse drug supply system, was dissolved in water to give a stock solution of 300 μM. Trifluoroacetic acid (Sigma Biochemicals, St. Louis, Mo.) was diluted into water to produce a 5% working solution.
Insulysin activity was assayed by measuring the disappearance of β-endorphin by isocratic reverse phase HPLC (Safavi et al. (1996) Biochemistry 1996 35:14318-14325). A 100 μl reaction mixture containing 40 mM potassium phosphate buffer, pH 7.2, 30 μM β-endorphin, and enzyme was incubated for 15 minutes at 37° C. […] The β-endorphin peak was detected by absorbance at 214 nm using a Waters 484 detector. The reaction was quantitated by measuring the decrease in the β-endorphin peak area.

[7] = target: T3, pre-aggregated Aβ1-40 (Homo sapiens, UniProt P05067); test: Degradation of pre-aggregated 125I-Aβ1-40 deposited onto synthetic amyloid; type: biochemical; details: 24 hr incubation with 5 μg of insulysin
T3 construct: purchased Amersham (125I-Aβ); QCB/BioSource (synthaloid plates)
Description: During the progression of Alzheimer's disease monomeric Aβ peptides are deposited onto senile plaques. To test whether insulysin is able to prevent the deposition of the Aβ1-40 peptide, a model system was used in which the deposition of radiolabeled Aβ1-40 onto a synthetic amyloid plaque (synthaloid) is followed (Esler et al. (1999) Methods Enzymol 309:350-74). […] We also conducted an experiment in which ^125I-Aβ1-40 was first deposited onto the synthetic amyloid and then treated with insulysin to see if the enzyme could degrade pre-aggregated Aβ1-40.

[8] = target: T4, Aβ1-40 (Homo sapiens, UniProt P05067); test: Rate of cleavage of Aβ1-40 by insulysin; type: biochemical; set-up: purchased Bachem (Torrance, Calif.); details: 25 μM Aβ1-40
Method: Purified insulysin was incubated with 25 μM Aβ1-40 in 40 mM potassium phosphate buffer, pH 7.2, at 37° C. for 1 hour. The reaction products were loaded onto a C4 reverse phase HPLC column and products resolved using a linear gradient of 5 to 75% acetonitrile over 65 minutes. Products were detected by absorbance at 214 nm using a Waters 484 detector and individual product peaks were collected manually. Product analysis was also conducted on an intact reaction mixture in which products were not resolved by HPLC. Products were identified by matrix assisted laser desorption ionization time of flight mass spectrometry (MALDI-TOF-MS). The reaction of insulysin with Aβ1-42 was conducted in a similar manner with products identified by MALDI-TOF-MS directly from reaction mixtures.
Product peaks corresponding to cleavage at the His^13-His^14, His^14-Gln^15, Phe^19-Phe^20 and Phe^20-Ala^21 positions were observed.

[9] = target: T4, Aβ1-40; test: Aβ1-40 deposition assay onto synthetic amyloid (synthaloid); type: biochemical; set-up: purchased Amersham (125I-Aβ); QCB/BioSource (synthaloid plates)
Method: A protocol was used where amyloid beta 1-40 (Aβ1-40) is initially deposited onto a 96 well microtiter plate. Radioactive (^125I labeled) Aβ1-40 is then added to the wells of this plate where it further adds to the Aβ1-40 deposited. This mimics the deposition of Aβ1-40 seen in the brains of Alzheimer patients.
96 well plates were pre-coated with Aβ1-40. In the control, 100 pM of ^125I-Aβ1-40 was deposited onto the pre-deposited Aβ1-40 plaque for three hours (lane 1). insulysin was added at concentrations of 500 ng, 50 ng and 5 ng to the wells along with ^125I-Aβ1-40 for three hours (lanes 2 to 4).
Beta amyloid deposition assays were conducted as described by Esler et. al. (Esler et al. (1997) Nat Biotech 15:268-263). Briefly, 96 well microtiter plates pre-coated with aggregated amyloid β1-40 (QCB/Biosource, Hopkinton, Mass.) were additionally coated with 200 μl of a 0.1% bovine serum albumin solution in 50 mM Tris-HCl, pH 7.5 for 20 minutes to prevent non-specific binding. For measuring Aβ1-40 deposition in the presence or absence of insulysin, a 150 μl solution of 0.1 nM 125I labeled Aβ1-40 in 50 mM Tris-HCl, pH 7.5 was added to the pre-coated well and incubated for four hours. When added, insulysin (0.5 to 500 ng) was placed directly in the well at zero time. The reaction was stopped by washing off excess undeposited radiolabeled Aβ1-40 with 50 mM Tris-HCl, pH 7.5. The radiolabel deposited onto the washed well was counted in a gamma counter. In a variation of this protocol, insulysin was preincubated with ^125 I-Aβ1-40 for 60 minutes and then added to the deposition assay.
During the progression of Alzheimer's disease monomeric Aβ peptides are deposited onto senile plaques. To test whether insulysin is able to prevent the deposition of the Aβ1-40 peptide, a model system was used in which the deposition of radiolabeled Aβ1-40 onto a synthetic amyloid plaque (synthaloid) is followed (Esler et al. (1999) Methods Enzymol 309:350-74). […]

T1 sequence (P35559 whole entry): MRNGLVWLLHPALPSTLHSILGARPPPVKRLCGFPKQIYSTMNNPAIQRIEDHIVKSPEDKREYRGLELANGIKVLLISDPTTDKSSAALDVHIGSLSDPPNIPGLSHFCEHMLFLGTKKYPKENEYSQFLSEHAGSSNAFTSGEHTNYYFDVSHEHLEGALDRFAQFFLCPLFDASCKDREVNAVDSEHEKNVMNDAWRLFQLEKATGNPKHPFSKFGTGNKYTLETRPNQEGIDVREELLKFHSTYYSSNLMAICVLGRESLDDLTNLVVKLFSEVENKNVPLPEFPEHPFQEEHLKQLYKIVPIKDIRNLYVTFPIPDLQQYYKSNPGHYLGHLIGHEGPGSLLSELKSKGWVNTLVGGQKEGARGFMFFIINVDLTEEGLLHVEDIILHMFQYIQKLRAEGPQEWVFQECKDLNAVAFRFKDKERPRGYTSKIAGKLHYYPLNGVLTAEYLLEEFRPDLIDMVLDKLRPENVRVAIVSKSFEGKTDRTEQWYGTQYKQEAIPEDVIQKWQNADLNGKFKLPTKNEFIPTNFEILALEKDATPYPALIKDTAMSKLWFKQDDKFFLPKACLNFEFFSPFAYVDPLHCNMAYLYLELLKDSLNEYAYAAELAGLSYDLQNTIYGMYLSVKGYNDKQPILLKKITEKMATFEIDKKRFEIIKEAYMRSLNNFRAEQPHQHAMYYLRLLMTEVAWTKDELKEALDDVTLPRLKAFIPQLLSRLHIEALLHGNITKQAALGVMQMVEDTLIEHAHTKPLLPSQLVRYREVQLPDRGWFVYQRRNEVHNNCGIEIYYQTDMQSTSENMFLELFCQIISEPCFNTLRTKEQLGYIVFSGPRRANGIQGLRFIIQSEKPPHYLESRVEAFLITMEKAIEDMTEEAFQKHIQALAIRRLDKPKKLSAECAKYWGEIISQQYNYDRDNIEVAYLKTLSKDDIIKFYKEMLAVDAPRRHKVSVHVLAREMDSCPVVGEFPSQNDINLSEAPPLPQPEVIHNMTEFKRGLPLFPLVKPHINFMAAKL

`C[C@]12CC[C@@H]3c4ccc(O)cc4CC[C@H]3[C@@H]1CC[C@@H]2O` [estrogen, 17β-estradiol] was tested, and the “expression of neprilysin mRNA in the hippocampus, higher than ovariectomized rats without estrogen” value [1] was “about 300%” and the “increase in neprilysin activity in the hippocampus over ovariectomized rats not treated with estrogen” value [2] was roughly 30%.
For “Aβ1-40: amyloid beta peptide 1-40 (SEQ ID NO: 12) obtained from Bachem [reference compound]”, the “loss of cortical neurons” value ([3]; 30 μM Aβ1-40, 48 hrs) was “approximately 70%”.
dynorphin was tested, and the “effect on insulysin activity” value [4] was “increase insulysin enzymatic activity”.
With “insulysin: His6-tagged recombinant rat insulysin (insulin degrading enzyme) expressed in Sf9 cells with baculovirus, purified” the “Aβ1-42 induced cell death of hippocampal cells” value ([5]; 10 μM Aβ1-42 (initially monomeric), 400 ng insulin degrading enzyme, 24 hrs) was “prevented Aβ1-42 induced cell death”, the neuronal survival ([5]; insulysin added with 25 μM Aβ1-42, up to 12 hours) was “survival was close to that seen in the control untreated cells” and the specific activity [6] was 2.6 μmols/min/mg. The “amount effective in sparing the neurotoxic effects of Aβ1-42” value ([3]; 25 μM Aβ1-42, added simultaneously, 48 hrs) was 500 ng, the “amount effective in sparing the neurotoxic effects of Aβ1-40” value ([3]; 30 μM Aβ1-40, added simultaneously, 48 hrs) was 50 ng and the “release of radioactivity from deposited 125I-Aβ1-40” value [7] was “no radioactivity was released”. For the same molecule, the “rate of cleavage of Aβ1-40” value [8] was 1.2 μmols/min/mg enzyme, the “inhibition of deposition of 125I-Aβ1-40” value ([9]; 50 ng of insulysin, 100 pM 125I-Aβ1-40, three hours) was 50% and the “amount able to prevent the deposition of radiolabeled Aβ1-40” value ([9]; insulysin added with 125I-Aβ1-40 (0.1 nM), 4 hr) was 50 ng. For the same molecule, the “amount able to prevent the deposition of radiolabeled Aβ1-40” value ([9]; insulysin preincubated with 125I-Aβ1-40 for 60 minutes, 4 hr deposition) was 50 ng.
For “beta endorphin: peptide, insulysin substrate, found to increase insulysin enzymatic activity”, the “effect on insulysin activity” value [4] was “increase insulysin enzymatic activity”.
